Experimental data published in PubChem BioAssay AID248 (DTP/NCI, 2004).
Where “and” joins values, the source holds several entries; their conditions need not be identical. Equal entries are not always repeated. Toxic doses and inconclusive results are not listed.

Tested on: L1210 leukemia ip in BDF1 mice, survival T/C
Assay: NCI In Vivo Anticancer Drug Screen. Data for tumor model L1210 Leukemia (intraperitoneal) in B6D2F1 (BDF1) mice
Conditions: endpoint: mean survival time, higher = longer survival
Method in brief: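 Transplanted-tumor mice were given test agent; controls received vehicle only. Survival readings from the two groups were divided (treated over control).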

[1] = dose: 100.0 mg/kg/injection, schedule: Q04DX003 (ip), vehicle: saline with Tween-80
[2] = dose: 200.0 mg/kg/injection, schedule: Q04DX003 (ip), vehicle: saline with Tween-80
[3] = dose: 400.0 mg/kg/injection, schedule: Q04DX003 (ip), vehicle: saline with Tween-80
[4] = dose: 100.0 mg/kg/injection, schedule: Q04DX003 (ip), vehicle: Klucel (hydroxypropylcellulose) (HPC)
[5] = dose: 200.0 mg/kg/injection, schedule: Q04DX003 (ip), vehicle: Klucel (hydroxypropylcellulose) (HPC)
[6] = dose: 400.0 mg/kg/injection, schedule: Q04DX003 (ip), vehicle: Klucel (hydroxypropylcellulose) (HPC)

## C[N+](C)(CC(=O)Nc1ccc(Cl)c(Cl)c1)CC(=O)c1ccc(Cl)c(Cl)c1
[1]
  T/C: 100 % of control
[2]
  T/C: 100 % of control
[3]
  T/C: 102 % of control

## NCCCCC(N)C(=O)Nc1ccc(Nc2ccc(NC(=O)C(N)CCCCN)cc2)cc1 (stereo unspecified)
dose: 5.0 mg/kg/injection, schedule: Q01DX001 (ip), vehicle: saline
  T/C: 92 % of control
dose: 10.0 mg/kg/injection, schedule: Q01DX001 (ip), vehicle: saline
  T/C: 90 % of control
dose: 20.0 mg/kg/injection, schedule: Q01DX001 (ip), vehicle: saline
  T/C: 92 % of control
dose: 40.0 mg/kg/injection, schedule: Q01DX001 (ip), vehicle: saline
  T/C: 93 % of control
dose: 80.0 mg/kg/injection, schedule: Q01DX001 (ip), vehicle: saline
  T/C: 93 % of control

## COC(=O)c1ccc[n+](CC(=O)c2ccccc2)c1
[1]
  T/C: 95 % of control
[2]
  T/C: 88 % of control

## O=C1NC(=O)C2(CCCCC2)N1
dose: 6.25 mg/kg/injection, schedule: Q04DX003 (ip), vehicle: Klucel (hydroxypropylcellulose) (HPC)
  T/C: 94 % of control
dose: 12.5 mg/kg/injection, schedule: Q01DX009 (ip), vehicle: Klucel (hydroxypropylcellulose) (HPC)
  T/C: 95 % of control
dose: 12.5 mg/kg/injection, schedule: Q04DX003 (ip), vehicle: Klucel (hydroxypropylcellulose) (HPC)
  T/C: 94 % of control
dose: 25.0 mg/kg/injection, schedule: Q01DX009 (ip), vehicle: Klucel (hydroxypropylcellulose) (HPC)
  T/C: 96 % of control
dose: 25.0 mg/kg/injection, schedule: Q04DX003 (ip), vehicle: Klucel (hydroxypropylcellulose) (HPC)
  T/C: 87 % of control and 97 % of control
dose: 50.0 mg/kg/injection, schedule: Q01DX009 (ip), vehicle: Klucel (hydroxypropylcellulose) (HPC)
  T/C: 100 % of control
dose: 50.0 mg/kg/injection, schedule: Q04DX003 (ip), vehicle: Klucel (hydroxypropylcellulose) (HPC)
  T/C: 96 % of control and 101 % of control
dose: 75.0 mg/kg/injection, schedule: Q01DX009 (ip), vehicle: Klucel (hydroxypropylcellulose) (HPC)
  T/C: 102 % of control

## Cc1ccc(S(=N)(=O)C2CC2)cc1 (stereo unspecified)
dose: 100.0 mg/kg/injection, schedule: Q01DX001 (ip), vehicle: saline
  T/C: 95 % of control
dose: 200.0 mg/kg/injection, schedule: Q01DX001 (ip), vehicle: saline
  T/C: 93 % of control
dose: 400.0 mg/kg/injection, schedule: Q01DX001 (ip), vehicle: saline
  T/C: 103 % of control

## O=S(=O)(c1ccccc1)N1CCCCC1
[4]
  T/C: 100 % of control
[5]
  T/C: 97 % of control
[6]
  T/C: 100 % of control

## CC(CO)CCC(=O)C(C)C1C(=O)CC2CC3CC(O)CCC3(C)CC21C (stereo unspecified)
dose: 100.0 mg/kg/injection, schedule: Q01DX001 (ip), vehicle: Klucel (hydroxypropylcellulose) (HPC)
  T/C: 98 % of control
dose: 200.0 mg/kg/injection, schedule: Q01DX001 (ip), vehicle: Klucel (hydroxypropylcellulose) (HPC)
  T/C: 105 % of control
dose: 400.0 mg/kg/injection, schedule: Q01DX001 (ip), vehicle: Klucel (hydroxypropylcellulose) (HPC)
  T/C: 119 % of control

## CN(C(=O)c1ccccc1C(=O)c1n[nH]c2ccccc12)c1ccccc1
dose: 50.0 mg/kg/injection, schedule: Q04DX002 (ip), vehicle: Klucel (hydroxypropylcellulose) (HPC)
  T/C: 104 % of control
dose: 100.0 mg/kg/injection, schedule: Q04DX002 (ip), vehicle: Klucel (hydroxypropylcellulose) (HPC)
  T/C: 97 % of control
dose: 200.0 mg/kg/injection, schedule: Q04DX002 (ip), vehicle: Klucel (hydroxypropylcellulose) (HPC)
  T/C: 104 % of control

## OCCC/C=C/CCI
dose: 100.0 mg/kg/injection, schedule: Q01DX009 (ip), vehicle: Klucel (hydroxypropylcellulose) (HPC)
  T/C: 93 % of control
[4]
  T/C: 112 % of control
dose: 200.0 mg/kg/injection, schedule: Q01DX009 (ip), vehicle: Klucel (hydroxypropylcellulose) (HPC)
  T/C: 90 % of control
[5]
  T/C: 109 % of control
dose: 400.0 mg/kg/injection, schedule: Q01DX009 (ip), vehicle: Klucel (hydroxypropylcellulose) (HPC)
  T/C: 98 % of control
[6]
  T/C: 91 % of control

## O=[N+]([O-])c1ccc(/C=C/c2ccccc2)c(Cl)c1
dose: 100.0 mg/kg/injection, schedule: Q01DX001 (ip), vehicle: saline with Tween-80
  T/C: 95 % of control
dose: 200.0 mg/kg/injection, schedule: Q01DX001 (ip), vehicle: saline with Tween-80
  T/C: 102 % of control
dose: 400.0 mg/kg/injection, schedule: Q01DX001 (ip), vehicle: saline with Tween-80
  T/C: 95 % of control

## CN(C)/N=N/c1nc(CCCc2ccccc2)[nH]c1C(N)=O
[1]
  T/C: 98 % of control
[2]
  T/C: 103 % of control
[3]
  T/C: 110 % of control

## Nc1cc2ccncc2c2sc3ccccc3c12
dose: 100.0 mg/kg/injection, schedule: Q01DX009 (ip), vehicle: saline
  T/C: 86 % of control
dose: 100.0 mg/kg/injection, schedule: Q04DX003 (ip), vehicle: saline
  T/C: 90 % of control
dose: 200.0 mg/kg/injection, schedule: Q01DX009 (ip), vehicle: saline
  T/C: 91 % of control
dose: 200.0 mg/kg/injection, schedule: Q04DX003 (ip), vehicle: saline
  T/C: 90 % of control
dose: 400.0 mg/kg/injection, schedule: Q01DX009 (ip), vehicle: saline
  T/C: 93 % of control
dose: 400.0 mg/kg/injection, schedule: Q04DX003 (ip), vehicle: saline
  T/C: 90 % of control

## CN(C)CCCN1c2ccccc2CCc2ccc(Cl)cc21
dose: 3.12 mg/kg/injection, schedule: Q01DX009 (ip), vehicle: saline
  T/C: 97 % of control
dose: 6.25 mg/kg/injection, schedule: Q01DX009 (ip), vehicle: saline
  T/C: 108 % of control
dose: 12.5 mg/kg/injection, schedule: Q01DX009 (ip), vehicle: saline
  T/C: 94 % of control
dose: 25.0 mg/kg/injection, schedule: Q01DX009 (ip), vehicle: saline
  T/C: 94 % of control
dose: 25.0 mg/kg/injection, schedule: Q04DX003 (ip), vehicle: saline
  T/C: 96 % of control
dose: 50.0 mg/kg/injection, schedule: Q01DX009 (ip), vehicle: saline
  T/C: 101 % of control
dose: 50.0 mg/kg/injection, schedule: Q04DX003 (ip), vehicle: saline
  T/C: 96 % of control

## CCCN=C(N)c1ccc(NC(=O)c2ccc(C(=O)Nc3ccc(C(N)=NCCC)cc3)c(Cl)c2)cc1
dose: 1.25 mg/kg/injection, schedule: Q01DX Z (ip), vehicle: water
  T/C: 98 % of control
dose: 2.5 mg/kg/injection, schedule: Q01DX Z (ip), vehicle: water
  T/C: 101 % of control
dose: 6.5 mg/kg/injection, schedule: Q01DX Z (ip), vehicle: carboxymethylcellulose (CMC)
  T/C: 155 % of control
dose: 13.0 mg/kg/injection, schedule: Q01DX Z (ip), vehicle: carboxymethylcellulose (CMC)
  T/C: 121 % of control
dose: 62.0 mg/kg/injection, schedule: Q01DX Z (oral), vehicle: water
  T/C: 104 % of control
dose: 125.0 mg/kg/injection, schedule: Q01DX Z (oral), vehicle: water
  T/C: 110 % of control
dose: 250.0 mg/kg/injection, schedule: Q01DX Z (oral), vehicle: water
  T/C: 104 % of control
dose: 500.0 mg/kg/injection, schedule: Q01DX Z (oral), vehicle: water
  T/C: 104 % of control

## CN(C)OC(=O)Nc1cccc([N+](=O)[O-])c1
dose: 100.0 mg/kg/injection, schedule: Q04DX002 (ip), vehicle: other
  T/C: 87 % of control
dose: 200.0 mg/kg/injection, schedule: Q04DX002 (ip), vehicle: other
  T/C: 102 % of control
dose: 400.0 mg/kg/injection, schedule: Q04DX002 (ip), vehicle: other
  T/C: 117 % of control
